Measurements as given in paper PMC9283751 (Clinical and Translational Science, 2022).
Where two headings read alike, the source gives them in different places.

Tests used:
[1] = Calcineurin inhibitor trough levels in transplant recipients; format: in vivo, human; details: mean [SD]
[2] = reference group of healthy subjects, abbreviated dosing schedule; cited from earlier work
[3] = format: in vivo, human
[4] = format: in vivo, human; remark: listed apart in the source
[5] = with diltiazem; cited from earlier work
[6] = cited from earlier work
[7] = cited from earlier work; remark: listed apart in the source
[8] = transplant recipients on tacrolimus, reference healthy subjects on apixaban + tacrolimus
[9] = transplant recipients on cyclosporine compared to healthy subjects on apixaban alone
[10] = transplant recipients on cyclosporine, reference healthy subjects on apixaban + cyclosporine

Q: With `C=CC[C@@H]1/C=C(\C)C[C@H](C)C[C@H](OC)[C@H]2O[C@@](O)(C(=O)C(=O)N3CCCC[C@H]3C(=O)O[C@H](/C(C)=C/[C@@H]3CC[C@@H](O)[C@H](OC)C3)[C@H](C)[C@@H](O)CC1=O)[C@H](C)C[C@@H]2OC` [tacrolimus] as the molecule, how does the mean trough level ([1]; after apixaban administration) read?
A: Its mean trough level is 8.0 [2.7] ng/ml.

Q: And the mean trough level ([1]; before apixaban administration (steady-state))?
A: Its mean trough level is 7.4 (1.5) ng/ml.

Q: What about the trough level [2] of the same molecule?
A: The trough level was 3.8 (2.3) ng/ml.

Q: For `COc1ccc(-n2nc(C(N)=O)c3c2C(=O)N(c2ccc(N4CCCCC4=O)cc2)CC3)cc1` [apixaban], which “increase in plasma concentrations and total body exposures” value ([3]; SOTRs on calcineurin inhibitors compared to healthy subjects on apixaban alone) is on record?
A: Its value is 2 to 3 fold.

Q: What about the AUC(0-inf) ([3]; human, plasma, oral, 10 mg) of the same molecule?
A: The AUC(0-inf) was 5210 ng·h/mL.

Q: And the Cmax ([3]; human, plasma, oral, 10 mg)?
A: The Cmax was 327 ng/mL.

Q: And the Tmax ([3]; human, plasma, oral, 10 mg)?
A: The Tmax was 1.4 h.

Q: And the AUC(0-inf) ([3]; human, plasma, po, 10 mg)?
A: The AUC(0-inf) was 4310 ng·h/mL.

Q: And the AUC(0-t) ([3]; human, plasma, po, 10 mg)?
A: Its AUC(0-t) is 4240 ng·h/mL.

Q: And the Cmax ([3]; human, plasma, po, 10 mg)?
A: The Cmax was 353 ng/mL.

Q: What about the peak level ([3]; one participant (kidney 1) on tacrolimus) of the same molecule?
A: Its peak level is greater than 500 ng/mL.

Q: What about the “mean AUCs higher than the healthy participants” value ([3]; tacrolimus group, patients with optimal renal function) of the same molecule?
A: Its value is 1.8 fold.

Q: What about the Tmax ([3]; tacrolimus transplant cohort, comparison group to patients that weighed <60 kg) of the same molecule?
A: The Tmax was 2.6 h.

Q: What about the “mean Cmax” value ([3]; tacrolimus transplant cohort, patients that weighed <60 kg) of the same molecule?
A: Its value is 483 ng/mL.

Q: What about the “apixaban CL/F” value ([3]; tacrolimus transplant cohort, patients with creatinine levels of greater than 133 μmol/L) of the same molecule?
A: The value was 1.9 L/h.

Q: And the “GMR for apixaban AUC0-inf” value ([3]; transplant recipients on tacrolimus compared to healthy subjects on apixaban alone)?
A: Its value is 224%.

Q: What about the “GMR for apixaban AUC0-inf” value [3, 8] of the same molecule?
A: The value was 285%.

Q: What about the “GMR for apixaban AUC0-tlast” value [3, 8] of the same molecule?
A: The value was 309%.

Q: And the AUC(0-inf) ([4]; human, plasma, po, 10 mg)?
A: The AUC(0-inf) was 5390 ng·h/mL.

Q: And the AUC(0-t) ([4]; human, plasma, po, 10 mg)?
A: Its AUC(0-t) is 4990 ng·h/mL.

Q: What about the “GMR for apixaban AUC0-inf” value [4, 9] of the same molecule?
A: Its value is 280%.

Q: What about the “GMR for apixaban Cmax” value [4, 9] of the same molecule?
A: Its value is 256%.

Q: And the “GMR for apixaban AUC0-inf” value [4, 10]?
A: Its value is 229%.

Q: What about the “GMR for apixaban Cmax” value [4, 10] of the same molecule?
A: The value was 179%.

Q: And the “increase in apixaban AUC” value [5]?
A: Its value is 1.4 fold.

Q: And the “increase in apixaban Cmax” value [5]?
A: The value was 1.3 fold.

Q: And the “apixaban dose removed by the kidneys” value [6]?
A: The value was 27%.

Q: What about the solubility classification [7] of the same molecule?
A: Its solubility classification is “high solubility”.
